From the supplement of paper PMC10307832

Experiments:
Assay in all cases: relative viability (nuclei count vs DMSO), 5 days (fraction); higher = more cells survive
[1] = tested on: LU99A
In short: (§1)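 Each reported value is a median over duplicate plates. It expresses relative viability: treated-well nuclei count divided by vehicle-well nuclei count. Lung cancer cell lines in 1536-well plates were dosed by pin tool a day after seeding, alone with one drug or with a fixed anchor-drug dose plus five library-drug doses (not always all listed) in √10 steps, and nuclei were counted after 5 days.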

[2] = tested on: LXF-289
In short: as §1

[3] = tested on: HCC-78
In short: as §1

[4] = tested on: NCI-H23
In short: as §1

[5] = tested on: SK-LU-1
In short: as §1

[6] = tested on: NCI-H322M
In short: as §1

[7] = tested on: NCI-H2405
In short: as §1

[8] = tested on: HCC-827
In short: as §1

[9] = tested on: LCLC-103H
In short: as §1

[10] = tested on: EKVX
In short: as §1

[11] = tested on: RERF-LC-KJ
In short: as §1

[12] = tested on: EMC-BAC-2
In short: as §1

[13] = tested on: NCI-H1563
In short: as §1

[14] = tested on: PC-14
In short: as §1

[15] = tested on: SW 1573
In short: as §1

[16] = tested on: NCI-H1975
In short: as §1

[17] = tested on: NCI-H2126
In short: as §1

[18] = tested on: LK-2
In short: as §1

[19] = tested on: NCI-H1666
In short: as §1

[20] = tested on: EPLC-272H
In short: as §1

O=c1cc(-c2cccc3c2Sc2ccccc2S3)oc(N2CCOCC2)c1 + C[C@]1(O)C[C@@H](c2nc(-c3ccc4ccc(-c5ccccc5)nc4c3)c3c(N)nccn32)C1 [Linsitinib] (partner 1 µM)
relative viability ([1]; first compound 0.08 µM): 0.58 | relative viability ([1]; first compound 0.253 µM): 0.582 | relative viability ([1]; first compound 0.8 µM): 0.631 | relative viability ([1]; first compound 2.53 µM): 0.544 | relative viability ([1]; first compound 8 µM): 0.608 | relative viability ([2]; first compound 0.08 µM): 0.993 | relative viability ([2]; first compound 0.253 µM): 0.976 | relative viability ([2]; first compound 0.8 µM): 0.99 | relative viability ([2]; first compound 2.53 µM): 0.96 | relative viability ([2]; first compound 8 µM): 1.07 | relative viability ([3]; first compound 0.08 µM): 0.561 | relative viability ([3]; first compound 0.253 µM): 0.746 | relative viability ([3]; first compound 0.8 µM): 0.41 | relative viability ([3]; first compound 2.53 µM): 0.457 | relative viability ([3]; first compound 8 µM): 0.575 | relative viability ([4]; first compound 0.08 µM): 0.596 | relative viability ([4]; first compound 0.253 µM): 0.738 | relative viability ([4]; first compound 0.8 µM): 0.578 | relative viability ([4]; first compound 2.53 µM): 0.684 | relative viability ([4]; first compound 8 µM): 0.574 | relative viability ([5]; first compound 0.08 µM): 1.14 | relative viability ([5]; first compound 0.253 µM): 1.22 | relative viability ([5]; first compound 0.8 µM): 1.27 | relative viability ([5]; first compound 2.53 µM): 0.952 | relative viability ([5]; first compound 8 µM): 0.918 | relative viability ([6]; first compound 0.08 µM): 0.868 | relative viability ([6]; first compound 0.253 µM): 1.04 | relative viability ([6]; first compound 0.8 µM): 0.866 | relative viability ([6]; first compound 2.53 µM): 0.928 | relative viability ([6]; first compound 8 µM): 0.839 | relative viability ([7]; first compound 0.08 µM): 0.878 | relative viability ([7]; first compound 0.253 µM): 0.924 | relative viability ([7]; first compound 0.8 µM): 0.85 | relative viability ([7]; first compound 2.53 µM): 0.822 | relative viability ([7]; first compound 8 µM): 0.768 | relative viability ([8]; first compound 0.08 µM): 0.892 | relative viability ([8]; first compound 0.253 µM): 0.979 | relative viability ([8]; first compound 0.8 µM): 0.925 | relative viability ([8]; first compound 2.53 µM): 0.848 | relative viability ([8]; first compound 8 µM): 0.915 | relative viability ([9]; first compound 0.08 µM): 1.06 | relative viability ([9]; first compound 0.253 µM): 1.1 | relative viability ([9]; first compound 0.8 µM): 1.08 | relative viability ([9]; first compound 2.53 µM): 1.06 | relative viability ([9]; first compound 8 µM): 1.06 | relative viability ([10]; first compound 0.08 µM): 1.17 | relative viability ([10]; first compound 0.253 µM): 1.13 | relative viability ([10]; first compound 0.8 µM): 0.818 | relative viability ([10]; first compound 2.53 µM): 1.02 | relative viability ([10]; first compound 8 µM): 0.935 | relative viability ([11]; first compound 0.08 µM): 0.865 | relative viability ([11]; first compound 0.253 µM): 0.939 | relative viability ([11]; first compound 0.8 µM): 0.85 | relative viability ([11]; first compound 2.53 µM): 1.01 | relative viability ([11]; first compound 8 µM): 0.763 | relative viability ([12]; first compound 0.08 µM): 0.828 | relative viability ([12]; first compound 0.253 µM): 0.9 | relative viability ([12]; first compound 0.8 µM): 0.842 | relative viability ([12]; first compound 2.53 µM): 0.817 | relative viability ([12]; first compound 8 µM): 0.878 | relative viability ([13]; first compound 0.08 µM): 1.19 | relative viability ([13]; first compound 0.253 µM): 1.42 | relative viability ([13]; first compound 0.8 µM): 1.2 | relative viability ([13]; first compound 2.53 µM): 1.2 | relative viability ([13]; first compound 8 µM): 1.06 | relative viability ([14]; first compound 0.08 µM): 1.02 | relative viability ([14]; first compound 0.253 µM): 1.07 | relative viability ([14]; first compound 0.8 µM): 0.966 | relative viability ([14]; first compound 2.53 µM): 0.92 | relative viability ([14]; first compound 8 µM): 0.948 | relative viability ([15]; first compound 0.08 µM): 0.855 | relative viability ([15]; first compound 0.253 µM): 0.819 | relative viability ([15]; first compound 0.8 µM): 0.685 | relative viability ([15]; first compound 2.53 µM): 0.809 | relative viability ([15]; first compound 8 µM): 0.811 | relative viability ([16]; first compound 0.08 µM): 1.07 | relative viability ([16]; first compound 0.253 µM): 1.2 | relative viability ([16]; first compound 0.8 µM): 0.807 | relative viability ([16]; first compound 2.53 µM): 0.863 | relative viability ([16]; first compound 8 µM): 0.881 | relative viability ([17]; first compound 0.08 µM): 0.707 | relative viability ([17]; first compound 0.253 µM): 0.809 | relative viability ([17]; first compound 0.8 µM): 0.708 | relative viability ([17]; first compound 2.53 µM): 0.667 | relative viability ([17]; first compound 8 µM): 0.592 | relative viability ([18]; first compound 0.08 µM): 0.64 | relative viability ([18]; first compound 0.253 µM): 0.527 | relative viability ([18]; first compound 0.8 µM): 0.549 | relative viability ([18]; first compound 2.53 µM): 0.533 | relative viability ([18]; first compound 8 µM): 0.651 | relative viability ([19]; first compound 0.08 µM): 0.827 | relative viability ([19]; first compound 0.253 µM): 0.946 | relative viability ([19]; first compound 0.8 µM): 0.545 | relative viability ([19]; first compound 2.53 µM): 0.738 | relative viability ([19]; first compound 8 µM): 0.805 | relative viability ([20]; first compound 0.08 µM): 1.12 | relative viability ([20]; first compound 0.253 µM): 1.31 | relative viability ([20]; first compound 0.8 µM): 1.3 | relative viability ([20]; first compound 2.53 µM): 1.19 | relative viability ([20]; first compound 8 µM): 1.13
